Data set [1] deals with leaf blade of rice plant (variety name: Nipponbare). Put plainly: Cell death spot formation on rice plant leaf blade after dropping spermidine derivative solution. The data set is classed as in vivo. The following applies: for formation of cell death spots: 1 mM aqueous solution (0.1% Tween 20), 5 μl dropped on rice leaf blade, visually evaluated; for severity of cell death compared with the compounds not introduced with hydroxyl group (Lau or ^1N Lau): same manner as Example 4, rice leaf blade. From the text: (§1) It is known that spermidine treatment of leaf blades forms HR (Hypersensitive Response) like cell death spots in various plant species (Plant Physiol., 132(4), pp. 1973-1981, […]).
The results of examination for severity of cell death are shown in FIG. 12, and those for formation of cell death spots are shown in FIG. 13. The severity of cell death was enhanced by each of the compounds introduced with one hydroxyl group at the terminal carbon atom of the lauroyl group (HydLau: YIS12OH4N, 1NHydLau: YIS12OH1N) compared with the compounds not introduced with hydroxyl group (Lau or ^1N Lau).

Data set [2] relates to leaf disks cut out from rice plant leaf blades. Kind of data set: Phytoalexin production in rice plant leaf disks immersed in aqueous solution. The following applies: 0.5 mM aqueous solution, 72 hours; not so severe compared with copper chloride.
Data set [3] relates to rice blast fungus (Kyu89-246, MAFF101506, race 003.0). The data set is classed as cell-based. The following applies: for antifungal activity against the rice blast fungus: even at the 10 mM concentration; for formation of inhibition ring against the rice blast fungus: filter paper disks, 1 mM, 5 mM or 10 mM, 28° C., 5 to 6 days, light shielding.
The next data set concerns Arabidopsis thaliana. Kind of data set: Cell death in Arabidopsis thaliana by visual inspection. The following applies: same manner as Example 4, visual inspection, 3 and 7 days. It counts as in vivo.
From the text: as §1

A further data set relates to PR1 gene. Put plainly: PR1 gene expression enhancing action in Arabidopsis thaliana. The data set is classed as in vivo. The following applies: after 24 hours and 72 hours.
In data set [4] the test system is rice plants at the five-leaf stage. The following applies: 5 mM, no inoculation.

Entries after “also recorded” stand apart in the source; their conditions may differ.

On to `NCCCCNCCCN` [Spd, Spermidine, reference compound], for which the “formation of cell death spots” value in data set [1] is listed as “observed only in a part of the treated leaves”.
For ^4N-lauroylspermidine, in data set [1], the “formation of cell death spots” value was “formation of fine cell death spots; also recorded: potent cell death induction effect”. Also, in data set [2], the “browning of leaf disks” value was “browning of leaf disks” and the phytoalexin accumulation entry is “evident phytoalexin accumulation”.
Consider `NCCCCN(CCCN)C(=O)CCCCCCCCCCCO` [YIS12OH4N, ^4N-(12-hydroroxylauroyl)-spermidine], for which, in data set [1], the “severity of cell death compared with the compounds not introduced with hydroxyl group (Lau or ^1N Lau)” value is given as “enhanced”. In data set [3], the “antifungal activity against the rice blast fungus” value was “did not have antifungal activity” and the “formation of inhibition ring against the rice blast fungus” value is recorded as “Formation of inhibition ring was not observed”. In the data set with Arabidopsis thaliana, the “cell death in Arabidopsis thaliana” value was “induced severe cell death”. In addition, the “PR1 gene expression enhancing action relative to 1NHydLau” value in the data set with PR1 gene is reported as “about 3 times”. In addition, the “cell death spots when only the test compounds were sprayed” value in data set [4] is listed as “cell death spots were not observed”.
For ^1N-nonanoylspermidine [^1N Non], the “formation of cell death spots” value in data set [1] is “formation of fine cell death spots”. The “cell death in Arabidopsis thaliana” value in the data set on Arabidopsis thaliana is on record as “induced severe cell death”.
Consider ^4N-nonanoylspermidine, for which the “formation of cell death spots” value in data set [1] is given as “formation of fine cell death spots”.
The same measure, in the same setting: the result for ^1N-lauroylspermidine [^1N Lau] reads “formation of fine cell death spots”.
In the case of `NCCCCNCCCNC(=O)CCCCCCCCCCCO` [YIS12OH1N, 1-N-(12-hydroroxylauroyl)-spermidine], the “severity of cell death compared with the compounds not introduced with hydroxyl group (Lau or ^1N Lau)” value in data set [1] is “enhanced”. In addition, in data set [3], the “antifungal activity against the rice blast fungus” value is on record as “did not have antifungal activity” and the “formation of inhibition ring against the rice blast fungus” value was “Formation of inhibition ring was not observed”. For the same molecule, the “cell death in Arabidopsis thaliana” value in the data set on Arabidopsis thaliana was “induced severe cell death”. Moreover, in data set [4], the “cell death spots when only the test compounds were sprayed” value is recorded as “cell death spots were not observed”.

Source of the values: patent publication US8741807B2 (priority 2011, dated 2014).
